Reference: PMC11434613, “The Remarkable and Selective In Vitro Cytotoxicity of Synthesized Bola-Amphiphilic Nanovesicles on Etoposide-Sensitive and -Resistant Neuroblastoma Cells” (Nanomaterials, 2024)
Where “and” joins values, the source holds several entries; their conditions need not be identical. Identical values can stand only once.

Experiments:
Cos-7 cells [1] = tested on: Cos-7 cells; set-up: method as in earlier work; settings: MTT test; Table S1, previously assessed characteristics; cited from earlier work
HTLA-ER cells = experiment: Cell viability assay (CellTiter 96 AQueous One Solution) on etoposide-resistant HTLA-ER NB cells; format: cell-based, human
From the text: (§1) HTLA-230 human stage-IV NB cells were kindly provided by Dr. L. Raffaghello (G. Gaslini Institute, Genoa, Italy). The HTLA-ER cells were selected by treating HTLA-230 parental cells for six months with increasing concentrations of etoposide, as previously reported. Both cell populations were maintained in RPMI 1640 medium (Euroclone Spa, Pavia, Italy) supplemented with 10% fetal bovine serum (FBS, Euroclone Spa, Pavia, Italy), 1% L-glutamine (Euroclone Spa, Pavia, Italy), and 1% Penicillin/Streptomicin (Euroclone Spa, Pavia, Italy) and grown in standard conditions (37 °C humidified incubator with 5% CO2).
(§2) To determine the cytotoxic effects of BPPB, in vitro time- and dose-dependent experiments were carried out. Cells were first treated for 24, 48, and 72 h, with increasing concentrations (0.5–50 µM) of the compound. In a subsequent series of the experiments, cells were treated for 24, 48, and 72 h with increasing concentration of BPPB in the range of 0.1–2 µM. […] Cell cultures were carefully monitored before and during the experiments to ensure optimal cell density.
(§3) Cell viability was determined by using the CellTiter 96® AQueous One Solution Cell Proliferation Assay (Promega, Madison, WI, USA), as previously described. Briefly, cells (10,000 cells/well) were seeded into 96-well plates (Corning Incorporated, Corning, NY, USA) and then treated. Next, cells were incubated with 20 µL of CellTiter, and the absorbance at 490 nm was recorded using a microplate reader (EL-808, BIO-TEK Instruments Inc., Winooski, VT, USA). IC50 was evaluated by GraphPad Prism 5.4.2 Software (GraphPad Software, Boston, MA, USA).
(§4) Results are expressed as the means ± S.D. of at least four independent experiments in which six different wells were analyzed every time for each experimental condition. The statistical significance of differences was determined by two-way analysis of variances (ANOVA) followed by Tukey’s multicomparison test using GraphPad Prism 8.0 (GraphPad Software v8.0, San Diego, CA, USA); p < 0.05 was considered statistically significant. Asterisks or other indicators (see Figures captions) indicate the following p-value ranges: p > 0.05 no symbols, * = p < 0.05, ** = p < 0.01, *** = p < 0.001, **** = p < 0.0001.

HepG2 cells [2] = experiment: LDH cytotoxicity assay on HepG2 cells; format: cell-based; settings: LDH test; 24 h
Procedure: (§5) To assess the cytotoxicity properties of BPPB, the lactate dehydrogenase (LDH) cytotoxicity assay (Abcam, Cat#ab102526) was performed, following manufacturer’s protocol, as previously described. This time, the increasing concentrations of BPPB were in the range 0.4–85.3 µM.
(§6) In this study, the cytotoxicity profile of BPPB was assessed in both immortalized human liver cells (HepG2) cells, as in our previous works, and in transformed African green monkey kidney fibroblast cells (Cos-7), as reported in a recent paper. Specifically, we evaluated the cytotoxicity of BPPB by carrying out both the MTT proliferation assay and the lactate dehydrogenase (LHD) cytotoxicity assay, which measures the LDH activity as an indicator of cell death. Both cell lines were exposed for 24 h to increasing concentrations of BPPB (0.4–85.3 µM). Growth inhibition/death were determined by the MTT test, while cell cytotoxicity was determined by LDH assay, with respect to untreated control cells. Results are reported as bar graphs in Figure 8 and as dispersion graphs in Figures S13 and S14 in Supplementary Materials (Section S2).

Cos-7 cells [3] = experiment: LDH cytotoxicity assay on Cos-7 cells; format: cell-based; settings: 24 h
Procedure: as §5, §6

[4] = tested on: HTLA-230 human stage-IV NB cells; experiment: Cell viability assay (CellTiter 96 AQueous One Solution) on HTLA-230 NB cells; format: cell-based; settings: for viability at 0.5 µM: series 0.5–50 µM
From the text: as §1, §2, §3, §4

[5] = MTT cytotoxicity assay on HepG2 cells; format: cell-based, human; settings: human
Procedure: (§7) To assess the cytotoxicity properties of BPPB, the MTT (3-(4,5-dimethylthiazol-2-yl)-2,5-diphenyltetrazolium bromide) cell proliferation assay (Abcam, Prodotti Gianni s.r.l., Milano, Italy, Cat#ab2011091) was performed, following the manufacturer’s protocol, as previously reported. This time, the increasing concentrations of BPPB were in the range of 0.4–85.3 µM. The cell survival rate, expressed as cell viability percentage (%), was evaluated based on the experimental outputs of treated groups vs. the untreated groups (CTR) and was calculated as follows: cell viability (%) = (OD treated cells − OD blank)/(OD untreated cells − OD blank) × 100%.
as §6

HepG2 cells [6] = experiment: MTT cytotoxicity assay on HepG2 cells; format: cell-based, human; settings: for IC50: MTT, concentration range 0.4–85.3 µM
Procedure: as §7, §6

[7] = MTT cytotoxicity assay on Cos-7 cells; format: cell-based, African green monkey; settings: African green monkey
Procedure: as §7, §6

Cos-7 cells [8] = experiment: MTT cytotoxicity assay on Cos-7 cells; format: cell-based, African green monkey; settings: for IC50: MTT, concentration range 0.4–85.3 µM
Procedure: as §7, §6

[9] = 24 h, concentration at which hemolysis was inexistent (concentration not stated)
[10] = 24 h exposure, refined concentration range 0.1–2 µM

Structure (SMILES): c1ccc([P+](CCCCCCCCCCCC[P+](c2ccccc2)(c2ccccc2)c2ccccc2)(c2ccccc2)c2ccccc2)cc1 [BPPB, 1,1-(1,12-dodecanediyl)bis [1,1, 1]-triphenylphosphonium di-bromide]
- IC50 COS-7 cell (Cos-7 cells [1]): 5.76 ± 0.95 µg/mL
- Cell viability HTLA-ER (HTLA-ER cells; 0.5 µM, 24 h, series 0.5–50 µM): not significantly different from that of controls
- Fold lower IC50 on HTLA-ER than that of ETO (HTLA-ER cells; 24 h, ETO IC50 592 µM from ref 58): 538 fold
- Cell viability HTLA-ER (HTLA-ER cells; [9]): 14.3%
- IC50 (HTLA-ER cells; [10]): 1110 nM
- IC50 (HTLA-ER cells; 48 h exposure, refined concentration range 0.1–2 µM): 930 ± 95.6 nM
- IC50 (HTLA-ER cells; 72 h exposure, refined concentration range 0.1–2 µM): 833 ± 68.5 nM
- IC50 (HTLA-ER cells; Homo sapiens, 24 h, 24 h exposure, concentration range 0.5–50 µM): 1850 ± 392 nM
- IC50 (HTLA-ER cells; Homo sapiens, 24 h, 24 h exposure, refined concentration range 0.1–2 µM): 1100 nM
- IC50 (HTLA-ER cells; Homo sapiens, 48 h, 48 h exposure, concentration range 0.5–50 µM): 732 ± 159 nM
- IC50 (HTLA-ER cells; Homo sapiens, 48 h, 48 h exposure, refined concentration range 0.1–2 µM): 900 nM
- IC50 (HTLA-ER cells; Homo sapiens, 72 h, 72 h exposure, concentration range 0.5–50 µM): 892 ± 167 nM
- IC50 (HTLA-ER cells; Homo sapiens, 72 h, 72 h exposure, refined concentration range 0.1–2 µM): 800 nM
- IC50 (HTLA-ER cells; Homo sapiens, 72 h, over 24, 48, 72 h, range 0.1–2 µM): 800 to 1100 nM
- viability at 0.5 µM (HTLA-ER cells; Homo sapiens, 0.5 µM, 48 h, series 0.5–50 µM): 54.1%
- viability at 0.5 µM (HTLA-ER cells; Homo sapiens, 0.5 µM, 72 h, series 0.5–50 µM): 62%
- Cell viability HTLA-ER (plateau) (HTLA-ER cells; concentrations above 5–10 µM up to 50 µM, all exposure times): 7–8%
- Concentrations with a safety profile toward HepG2 (HepG2 cells [2]): ≤ 8.5 µM
- LDH release Cos-7 (optical density) (Cos-7 cells [3]; 4.3 µM): 0.30 OD
- LDH release Cos-7 (optical density) (Cos-7 cells [3]; 8.5 µM): 0.80 OD
- Concentrations with a safety profile toward Cos-7 (Cos-7 cells [3]; LDH test): ≤ 4.3 µM
- Cell viability HTLA-230 [4, 9]: 18.2%
- IC50 [4, 10]: 240 nM and 238 nM
- Viable cells, both NB cell populations ([4]; 24 h treatment, HTLA-230 and HTLA-ER, concentrations leaving more than 98% of RBCs alive): 14–18%
- IC50 ([4]; Homo sapiens, HTLA-230, 24 h, 24 h exposure, concentration range 0.5–50 µM): 738 ± 546 nM
- IC50 ([4]; Homo sapiens, HTLA-230, 24 h, 24 h exposure, refined concentration range 0.1–2 µM): 200 nM
- IC50 ([4]; Homo sapiens, HTLA-230, 48 h, 48 h exposure, concentration range 0.5–50 µM): 590 ± 445 nM
- IC50 ([4]; Homo sapiens, HTLA-230, 48 h, 48 h exposure, refined concentration range 0.1–2 µM): 196 ± 21.1 nM
- IC50 ([4]; Homo sapiens, HTLA-230, 72 h, 72 h exposure, concentration range 0.5–50 µM): 203 ± 178 nM
- IC50 ([4]; Homo sapiens, HTLA-230, 72 h, 72 h exposure, refined concentration range 0.1–2 µM): 228 ± 17.6 nM
- viability at 0.25 µM ([4]; Homo sapiens, HTLA-230, 0.25 µM, 24 h, series 0.1–2 µM): 53.1%
- viability at 0.5 µM ([4]; Homo sapiens, HTLA-230, 24 h): 46%
- viability at 0.5 µM ([4]; Homo sapiens, HTLA-230, 48 h): 41.6%
- viability at 0.5 µM ([4]; Homo sapiens, HTLA-230, 72 h): 21.7%
- viability at 5 µM ([4]; Homo sapiens, HTLA-230, concentrations ≥ 5 µM, 24, 48, 72 h): 16 to 18%
- Selectivity indexes (SIs), all non-tumoral cells vs both NB cell populations ([4]; after 24 h treatments, MRC-5, Cos-7, HepG2, RBCs vs HTLA-230 and HTLA-ER): 2.5–74.6
- viability at 24 h ([5]; HepG2 cells, 8.5 µM and 4.3 µM, which value belongs to which concentration is not stated, read-out: Cell viability HepG2 (MTT)): 64.5%
- selectivity ratio at 24 h ([5]; read-out: Selectivity index (SI) = IC50 HepG2 / IC50 HTLA-ER): 8.7
- Selectivity index (SI) = IC50 HepG2 / IC50 HTLA-230 (HepG2 cells [6]; 24 h): 40.6 and 40.63
- Selectivity index (SI) = IC50 HepG2 / IC50 HTLA-ER (HepG2 cells [6]; 24 h): 8.68
- IC50 (HepG2 cells [6]; 24 h): 9640 ± 1310 nM
- IC50 (HepG2 cells [6]; Homo sapiens, HepG2, 24 h): 9600 nM
- Concentrations with a safety profile toward HepG2 (HepG2 cells [6]; MTT test, 24 h): ≤ 8.5 µM
- viability at 24 h, 4.3 µM ([7]; Cos-7 cells, 4.3 µM, read-out: Cell viability Cos-7 (MTT)): 64.2%
- viability at 24 h, 8.5 µM ([7]; Cos-7 cells, 8.5 µM, read-out: Cell viability Cos-7 (MTT)): 27.4%
- selectivity ratio at 24 h ([7]; read-out: Selectivity index (SI) = IC50 Cos-7 / IC50 HTLA-ER): 4.42
- Selectivity index (SI) = IC50 Cos-7 / IC50 HTLA-230 (Cos-7 cells [8]; 24 h): 20.72
- IC50 (Cos-7 cells [8]; 24 h): 4910 ± 810 nM
- IC50 (Cos-7 cells [8]; Chlorocebus sabaeus, COS-7, 24 h): 4900 nM
- Concentrations with a safety profile toward Cos-7 (Cos-7 cells [8]; MTT test, 24 h): ≤ 4.3 µM
